Source: ChEMBL document CHEMBL1151287, “Discorhabdin W, the first dimeric discorhabdin” (J Nat Prod, 2005)

Tested on: P388
Assay: Cytotoxicity against mouse P388 cells
Type: functional, cell-based

In order of falling IC50:
1. O=C1C2=C3C4=[N+](CCc5c[nH]c1c54)[C@H]1C[C@@]34C[C@@H](N2)SC4=CC1=O [DISCORHABDIN D]  1600 nM
2. O=C1C2=C3C4=[N+](CCc5c[nH]c1c54)[C@@H]1C(=O)C=C4S[C@@H](C[C@@]43[C@H]1O)N2 [DISCORHABDIN L]  1100 nM
3. O=C1C=C[C@@]23C[C@@H](NC4=C2C2=NCCc5c[nH]c(c52)C4=O)SC3=C1  510 nM
4. O=C1C=C2S[C@H]3C[C@]2(C=C1Br)C1=C(N3)C(=O)c2[nH]cc3c2C1=NCC3 [DISCORHABDIN B]  87 nM
5. O=C1C=C(SSC2=CC(=O)C(Br)=C[C@]23C=CNC2=C3C3=NCCc4c[nH]c(c43)C2=O)[C@@]2(C=CNC3=C2C2=NCCc4c[nH]c(c42)C3=O)C=C1Br [DISCORHABDIN W]  84 nM
